In patent US20100029619A1, “FUSED HETEROCYCLIC COMPOUND” (TAKEDA PHARMACEUTICAL COMPANY LIMTED, priority 2006, published 2010) one finds melting point data, which are given here for 18 compounds.

As to `O=C(Nc1cn2cc(Cl)ccc2n1)c1ccc(C2(C(=O)O)CCC2)cc1` [Example 190, 1-{4-[(6-chloroimidazo[1,2-a]pyridin-2-yl)carbamoyl]phenyl}cyclobutanecarboxylic acid], the melting point was 317.7 °C (dec.).

With `CC(C)(C)c1ccc(C(=O)Nc2cn3cc(-c4cnc[nH]4)ccc3n2)cc1` [Example 76, 4-tert-butyl-N-[6-(1H-imidazol-5-yl)imidazo[1,2-a]pyridin-2-yl]benzamide], the melting point fell in the range of 297 to 298 °C.

The compound `Cc1cn(-c2ccc3nc(NC(=O)c4ccc(C(C)(C)C)cc4)cn3n2)c(C)n1` [Example 143, 4-tert-butyl-N-[6-(2,4-dimethyl-1H-imidazol-1-yl)imidazo[1,2-b]pyridazin-2-yl]benzamide] registered a melting point of 254 to 255 °C.

On to `CC(C)(C)c1ccc(C(=O)Nc2cn3nc(NCCO)ccc3n2)cc1` [Example 169, 4-tert-butyl-N-{6-[(2-hydroxyethyl)amino]imidazo[1,2-b]pyridazin-2-yl}benzamide], for which the melting point fell in the range of 231 to 233 °C.

Take `CC(C)(C(=O)NCCC#N)c1ccc(C(=O)Nc2cn3cc(Cl)ccc3n2)cc1` [Example 35, N-(6-chloroimidazo[1,2-a]pyridin-2-yl)-4-{2-[(2-cyanoethyl)amino]-1,1-dimethyl-2-oxoethyl}benzamide]: the melting point was 208 to 209 °C.

`CC(C)(C(=O)O)c1ccc(C(=O)Nc2cn3c4c(ccc3n2)OCC4)cc1` [Example 16, 2-[4-(1,2-dihydrofuro[2,3-e]imidazo[1,2-a]pyridin-7-ylcarbamoyl)phenyl]-2-methylpropanoic acid] returned a melting point of 293 to 295 °C.

In the case of `CC(C)(C)c1ccc(C(=O)Nc2cn3nc(-c4cn[nH]c4)ccc3n2)cc1` [Example 174, 4-tert-butyl-N-[6-(1H-pyrazol-4-yl)imidazo[1,2-b]pyridazin-2-yl]benzamide], the melting point is 358 to 362 °C (dec.).

For the compound `CC(C)(CCO)c1ccc(C(=O)Nc2cn3cc(C(F)(F)F)ccc3n2)cc1` [Example 459, 4-(3-hydroxy-1,1-dimethylpropyl)-N-[6-(trifluoromethyl)imidazo[1,2-a]pyridin-2-yl]benzamide], the melting point is 152 to 153 °C.

Compound `CC(C)(CNC(=O)C(O)CO)c1ccc(C(=O)Nc2cn3cc(Cl)ccc3n2)cc1` (stereo not drawn) [Example 450, N-(6-chloroimidazo[1,2-a]pyridin-2-yl)-4-[2-(glyceroylamino)-1,1-dimethylethyl]benzamide] showed a melting point of 228 to 229 °C.

`Cc1c(NC(=O)c2ccc(C(C)(C)C)cc2)nc2ccc(-n3ccnc3)nn12` [Example 56, 4-tert-butyl-N-[6-(1H-imidazol-1-yl)-3-methylimidazo[1,2-b]pyridazin-2-yl]benzamide] registered a melting point of 302 to 303 °C.

In turn, `CC(C)(CO)c1ccc(C(=O)Nc2cn3cc(-c4ccsc4)ccc3n2)cc1` [Example 466, 4-(2-hydroxy-1,1-dimethylethyl)-N-[6-(3-thienyl)imidazo[1,2-a]pyridin-2-yl]benzamide] returned a melting point of 250 to 252 °C.

Regarding `Cc1cccc2nc(NC(=O)c3ccc(C(C)(C)CCC(=O)O)cc3)cn12` [Example 187, 4-methyl-4-(4-{[(5-methylimidazo[1,2-a]pyridin-2-yl)amino]carbonyl}phenyl)pentanoic acid], the melting point is 260 °C.

In the case of `Cn1cc(-c2ccc3nc(NC(=O)c4ccc(C(C)(C)C)nc4)cn3c2)cn1` [Example 105, 6-tert-butyl-N-[6-(1-methyl-1H-pyrazol-4-yl)imidazo[1,2-a]pyridin-2-yl]nicotinamide], the melting point lay within 228 to 230 °C.

In the case of `CC(C)(CCC(=O)O)c1ccc(C(=O)Nc2cn3cc(Cl)ccc3n2)cc1` [Example 118, 4-(4-{[(6-chloroimidazo[1,2-a]pyridin-2-yl)amino]carbonyl}phenyl)-4-methylpentanoic acid], the melting point is 309 to 311 °C (dec.).

In turn, `Cc1ccc2nc(NC(=O)c3ccc(C(C)(C)CCc4noc(=O)[nH]4)cc3)cn2c1` [Example 440, 4-[1,1-dimethyl-3-(5-oxo-4,5-dihydro-1,2,4-oxadiazol-3-yl)propyl]-N-(6-methylimidazo[1,2-a]pyridin-2-yl)benzamide] came in with a melting point of 267 to 268 °C.

`COC(=O)C(C)(C)c1ccc(C(=O)Nc2cn3cc(C)ccc3n2)cc1` [Example 19, methyl 2-methyl-2-{4-[(6-methylimidazo[1,2-a]pyridin-2-yl)carbamoyl]phenyl}propanoate] came in with a melting point of 228 to 230 °C.

Compound `CC(C)(C)c1ccc(C(=O)Nc2cn3nc(N)ccc3n2)cc1.Cl` gave a melting point of 312 to 313 °C.

The compound `CC(C)(C#N)c1ccc(C(=O)Nc2cn3cc(C(F)(F)F)ccc3n2)cc1` [Example 455, 4-(1-cyano-1-methylethyl)-N-[6-(trifluoromethyl)imidazo[1,2-a]pyridin-2-yl]benzamide] showed a melting point of 230 to 231 °C.

What is called melting point is the temperature of the solid-liquid transition.
